Experimental data published in paper PMC2836812 (Chemical biology & drug design, 2010).
Like-named read-outs stand apart in the source and are kept apart here.

Columns and labels:
[1] = target: T1, ScPFTase (protein farnesyltransferase), β-subunit (Saccharomyces cerevisiae, UniProt P22007); assay: continuous fluorescence assay with N-dansyl-GCVIA; format: biochemical
T1 sequence (P22007 1-431): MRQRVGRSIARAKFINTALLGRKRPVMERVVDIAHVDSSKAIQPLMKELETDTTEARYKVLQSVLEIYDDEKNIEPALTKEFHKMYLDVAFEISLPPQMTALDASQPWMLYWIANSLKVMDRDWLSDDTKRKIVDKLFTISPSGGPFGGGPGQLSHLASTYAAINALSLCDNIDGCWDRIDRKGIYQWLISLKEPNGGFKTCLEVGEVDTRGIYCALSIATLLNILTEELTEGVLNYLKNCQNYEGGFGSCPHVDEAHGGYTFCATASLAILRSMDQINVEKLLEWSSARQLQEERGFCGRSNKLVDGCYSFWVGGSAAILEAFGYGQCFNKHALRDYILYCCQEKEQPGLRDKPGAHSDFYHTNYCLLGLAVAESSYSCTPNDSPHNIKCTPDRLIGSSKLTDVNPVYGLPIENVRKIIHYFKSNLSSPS
T1 sequence (P29703 1-316 partner): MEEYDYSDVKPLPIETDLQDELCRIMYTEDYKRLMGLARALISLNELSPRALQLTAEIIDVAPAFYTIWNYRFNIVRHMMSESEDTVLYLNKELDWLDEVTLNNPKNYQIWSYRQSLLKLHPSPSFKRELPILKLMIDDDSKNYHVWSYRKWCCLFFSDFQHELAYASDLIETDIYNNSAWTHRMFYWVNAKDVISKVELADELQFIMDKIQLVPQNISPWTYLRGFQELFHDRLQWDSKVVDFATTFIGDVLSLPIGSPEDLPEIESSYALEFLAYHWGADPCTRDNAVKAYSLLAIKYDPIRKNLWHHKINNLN

[2] = target: T1, ScPFTase (protein farnesyltransferase), β-subunit; assay: continuous fluorescence assay with N-dansyl-GCVIA; format: biochemical; remark: listed apart in the source

IC50 [1] [µM]	IC50 [2] [µM]	SMILES
30	–	C/C(=C\COP(=O)(O)OP(=O)(O)O)CCCC(C)COC(=O)C(=[N+]=[N-])C(F)(F)F (racemic) [compound 4, (E)-8-O-(2-Diazo-3,3,3-trifluoropropanoyloxy)-3,7-dimethyl-2-octenyl-1-diphosphate]
–	50	C/C(=C\COP(=O)(O)OP(=O)(O)O)CC/C=C(\C)CNC(=O)C(=[N+]=[N-])C(F)(F)F [compound 3, (E,E)-8-N-(2-Diazo-3,3,3-trifluoropropionamido)-3,7-dimethyl-2,6-octadienyl-1-diphosphate]
